Measured values from patent US11155551B2, “Nicotinic acetylcholine receptor silent agonists” (University of Florida Research Foundation, Inc., priority 2015, dated 2021).

Assays:
human α7 nAChR = target: T1, human α7 nAChR (Homo sapiens, UniProt P36544); experiment: Two-electrode voltage clamping of human α7 nAChR expressed in Xenopus oocytes (net-charge / peak current relative to 60 μM ACh); assay type: cell-based; settings: for Potentiated response: 30 μM test compound + 10 μM PNU-120596 co-application; for Potentiated response / Relative response: relative to 60 μM ACh control, mean ± SEM, N ≥ 4; for Relative response: net-charge response to 30 μM test compound alone; for functional classification at α7 nAChR: 30 μM alone and with 10 μM PNU-120596, partial agonist = net charge > 1/10th ACh control; for PNU Response: 30 μM compound + 10 μM PNU-120596, relative to 60 μM ACh controls (n ≥ 4); for Net Charge / Peak current: 30 μM compound alone, relative to 60 μM ACh controls (n ≥ 4); for Ratio (peak current to net charge): 30 μM, normalized peak current / normalized net charge; for Estimated Rank efficacy / Estimated Rank potency: rank among six partial agonists; for Estimated Rank potency: from peak-current-to-net-charge ratio; for PAM-dependent currents relative to ACh: co-application with PNU-120596, meta-substituted series; for PAM-dependent response compared to the parent diEPP: co-application with PNU-120596
T1 construct: expressed in transfected cells; host or cells: Xenopus oocytes
Description: Electrophysiology: The panel of compounds synthesized was assayed using human α7 nAChR expressed in Xenopus oocytes and two-electrode voltage clamping. The partial agonism activity was evaluated, quantified as net-charge for 30 μM applications of compounds, measured relative to the control response to applications of 60 μM ACh. The induction of PAM-sensitive desensitization was detected as the net-charge responses when compounds were co-applied with the PAM PNU-120596 (30 μM compound+10 μM PNU-120596), measured relative to responses to 60 μM ACh applied alone. […] It is a unique property of α7 orthosteric agonist-induced currents that they vary systematically in the relationship between peak current and net charge as a function of the effective concentration applied (Papke & Papke (2002) Br. J. Pharm. 137: 49-61; Papke & Thinschmidt (1998) Neurosci. Let. 256: 163-166). This was due to the concentration-dependent desensitization of the receptors, which is likely to be associated with high levels of agonist binding site occupancy (Williams et al., (2011) J. Gen. Physiol. 137: 369-384) and is observed even when agonists are rapidly applied to small cells (Williams et al., (2012) Mol. Pharmacol. 82: 746-759) or acutely dissociated neurons (Uteshev et al., (2002) Brain Res. 948: 33-46). The control ACh concentration used for these experiments is roughly the EC80 for the net-charge responses.
By normalizing both the peak currents and net-charge measurements of the drug responses at the probe concentration of 30 μM (FIG. 3B) to those of the ACh control, the relationship between the probe concentration and the EC for each of the drugs was estimated (Papke, R. L. (2005) Life Sci.). At a concentration where the ratio of the normalized measures equaled one, the drug would be at the same effective concentration as 60 μM ACh.
Electrophysiology: New compounds were assayed for activity with the α7 nAChR expressed in Xenopus oocytes using two-electrode voltage clamping as previously described in Papke et al., (2014) J. Pharmacol. Experimental Therap. 350: 665-680, incorporated herein by reference in its entirety, and compared to responses evoked by 60 μM Ach (FIGS. 5 and 6). The compound set was assayed at a concentration of 30 μM to provide a standard comparison benchmark.
Based on earlier experience this concentration is high enough to provide an observable response and low enough to avoid possible complications such as channel block. The net-charge response for each compound application is reported relative to those for ACh control applications. Data were expressed as the mean ±S.E.M. from at least four oocytes for each experiment and were plotted by Kaleidagraph (Abelbeck Software, Reading, Pa.).

T1 sequence (P36544 23-502): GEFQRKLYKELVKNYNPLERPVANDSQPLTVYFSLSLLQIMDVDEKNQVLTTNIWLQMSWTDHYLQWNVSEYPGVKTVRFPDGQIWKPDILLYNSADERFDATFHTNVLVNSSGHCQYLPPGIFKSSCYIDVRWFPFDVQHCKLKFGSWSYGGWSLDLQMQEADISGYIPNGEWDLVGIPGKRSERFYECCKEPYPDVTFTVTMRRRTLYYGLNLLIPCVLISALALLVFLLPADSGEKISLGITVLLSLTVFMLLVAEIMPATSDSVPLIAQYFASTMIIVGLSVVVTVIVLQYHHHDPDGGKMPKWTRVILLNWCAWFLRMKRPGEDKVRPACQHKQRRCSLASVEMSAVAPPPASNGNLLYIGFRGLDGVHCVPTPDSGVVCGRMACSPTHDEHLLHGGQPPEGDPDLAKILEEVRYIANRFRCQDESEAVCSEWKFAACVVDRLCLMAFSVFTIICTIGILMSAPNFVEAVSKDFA

SMILES: CCN1CCN(c2ccc(OC)cc2)CC1
- melting point: 56.6 to 57.8 °C

SMILES: CCN1CCN(c2cccc(O)c2)CC1
- melting point: 150.3 to 151.6 °C

SMILES: CCN1CCN(c2ccc3ccccc3c2)CC1
- melting point: 69.1 to 70 °C

SMILES: CCN1CCN(c2ccc(Br)cc2)CC1
- melting point: 85 to 85.5 °C

SMILES: CCN1CCN(c2cccc(Cl)c2)CC1 [Compound 1f, 1-(3-chlorophenyl)-4-ethylpiperazine]
- Potentiated response (human α7 nAChR): 0.1 ± 0.1
- Relative response (human α7 nAChR): 0.009 ± 0.008

SMILES: CCN1CCN(c2cccc(Br)c2)CC1 [Compound 1p, 1-(3-bromophenyl)-4-ethylpiperazine]
- functional classification at α7 nAChR (human α7 nAChR): modest silent agonism
- Potentiated response (human α7 nAChR): 6.9±2.4
- response relative to diEPP (human α7 nAChR; PAM co-application response): approximately 5 fold
- response relative to its corresponding quaternary salt 2p (human α7 nAChR; PAM co-application response): 0.69 fold
- Relative response (human α7 nAChR): 0.000 ± 0.003

SMILES: CC[N+]1(CC)CCN(c2ccc(C#N)cc2)CC1.[I-] [Compound 2b, 4-(4-cyanophenyl)-1,1-diethylpiperazin-1-ium iodide]
- functional classification at α7 nAChR (human α7 nAChR): partial agonists
- PNU Response (human α7 nAChR): 68 ± 25
- Net Charge (human α7 nAChR): 0.23 ± 0.02
- Peak current (human α7 nAChR): 0.10 ± 0.01
- Potentiated response (human α7 nAChR): 68.0 ± 25.4
- Ratio (peak current to net charge) (human α7 nAChR): 0.43
- Relative response (human α7 nAChR): 0.234 ± 0.024
- Estimated Rank efficacy (human α7 nAChR): 3
- Estimated Rank potency (human α7 nAChR): 6

SMILES: CC[N+]1(CC)CCN(c2ccc(OC)cc2)CC1.[I-] [Compound 2c, 1,1-diethyl-4-(4-methoxyphenyl)piperazin-1-ium iodide]
- functional classification at α7 nAChR (human α7 nAChR): candidate silent agonists
- Potentiated response (human α7 nAChR): 11.6 ± 0.3
- Relative response (human α7 nAChR): 0.063 ± 0.014

SMILES: CC[N+]1(CC)CCN(c2ccc(Cl)cc2)CC1.[I-] [Compound 2e, 4-(4-chlorophenyl)-1,1-diethylpiperazin-1-ium iodide]
- functional classification at α7 nAChR (human α7 nAChR): partial agonists
- PNU Response (human α7 nAChR): 18 ± 6
- Net Charge (human α7 nAChR): 0.23 ± 0.05
- Peak current (human α7 nAChR): 0.17 ± 0.02
- Potentiated response (human α7 nAChR): 18.3 ± 6.2
- Ratio (peak current to net charge) (human α7 nAChR): 0.71
- Relative response (human α7 nAChR): 0.234 ± 0.048
- Estimated Rank efficacy (human α7 nAChR): 5
- Estimated Rank potency (human α7 nAChR): 1

SMILES: CC[N+]1(CC)CCN(c2cccc(Cl)c2)CC1.[I-] [Compound 2f, 4-(3-chlorophenyl)-1,1-diethylpiperazin-1-ium iodide]
- functional classification at α7 nAChR (human α7 nAChR): candidate silent agonists
- Potentiated response (human α7 nAChR): 4.2 ± 1.0
- PAM-dependent currents relative to ACh (human α7 nAChR): 4.23 fold
- Relative response (human α7 nAChR): 0.020 ± 0.003

SMILES: CC[N+]1(CC)CCN(c2ccccc2C)CC1.[I-] [Compound 2h, 1,1-diethyl-4-o-tolylpiperazin-1-ium iodide]
- functional classification at α7 nAChR (human α7 nAChR): partial agonists
- PNU Response (human α7 nAChR): 16 ± 2
- Net Charge (human α7 nAChR): 0.32 ± 0.07
- Peak current (human α7 nAChR): 0.15 ± 0.02
- Potentiated response (human α7 nAChR): 16.4 ± 2.4
- Ratio (peak current to net charge) (human α7 nAChR): 0.46
- Relative response (human α7 nAChR): 0.319 ± 0.066
- Estimated Rank efficacy (human α7 nAChR): 1
- Estimated Rank potency (human α7 nAChR): 5

SMILES: CC[N+]1(CC)CCN(c2cccc(C#N)c2)CC1.[I-] [Compound 2i, 4-(3-cyanophenyl)-1,1-diethylpiperazin-1-ium iodide]
- functional classification at α7 nAChR (human α7 nAChR): no significant activity as either partial agonists or as silent agonists
- Potentiated response (human α7 nAChR): 1.5 ± 0.7
- PAM-dependent response compared to the parent diEPP (human α7 nAChR): equivalent
- Relative response (human α7 nAChR): 0.022 ± 0.024

SMILES: CC[N+]1(CC)CCN(c2ccccc2Cl)CC1.[I-] [Compound 2j, 4-(2-chlorophenyl)-1,1-diethylpiperazin-1-ium iodide]
- functional classification at α7 nAChR (human α7 nAChR): partial agonists
- PNU Response (human α7 nAChR): 37 ± 6
- Net Charge (human α7 nAChR): 0.37 ± 0.05
- Peak current (human α7 nAChR): 0.23 ± 0.03
- Potentiated response (human α7 nAChR): 36.6 ± 6.1
- Ratio (peak current to net charge) (human α7 nAChR): 0.63
- Relative response (human α7 nAChR): 0.367 ± 0.054
- Estimated Rank efficacy (human α7 nAChR): 2
- Estimated Rank potency (human α7 nAChR): 4

SMILES: CC[N+]1(CC)CCN(c2cccc(O)c2)CC1.[I-] [Compound 2k, 1,1-diethyl-4-(3-hydroxyphenyl)piperazin-1-ium iodide]
- functional classification at α7 nAChR (human α7 nAChR): partial agonists
- PNU Response (human α7 nAChR): 31 ± 5
- Net Charge (human α7 nAChR): 0.28 ± 0.02
- Peak current (human α7 nAChR): 0.19 ± 0.02
- Potentiated response (human α7 nAChR): 31.4 ± 5.1
- Ratio (peak current to net charge) (human α7 nAChR): 0.67
- Relative response (human α7 nAChR): 0.283 ± 0.013
- Estimated Rank efficacy (human α7 nAChR): 4
- Estimated Rank potency (human α7 nAChR): 3

SMILES: CC[N+]1(CC)CCN(c2ccc(OC)cc2OC)CC1.[I-] [Compound 2l, 4-(2,4-dimethoxyphenyl)-1,1-diethylpiperazin-1-ium iodide]
- functional classification at α7 nAChR (human α7 nAChR): not a partial agonist
- Potentiated response (human α7 nAChR): 1.1 ± 0.1
- Relative response (human α7 nAChR): 0.014 ± 0.009

SMILES: CC[N+]1(CC)CCN(c2ccc3ccccc3c2)CC1.[I-] [Compound 2m, 1,1-diethyl-4-(naphthalen-2-yl)piperazin-1-ium iodide]
- functional classification at α7 nAChR (human α7 nAChR): partial agonist
- PNU Response (human α7 nAChR): 16 ± 2
- Net Charge (human α7 nAChR): 0.14 ± 0.02
- Peak current (human α7 nAChR): 0.10 ± 0.02
- Potentiated response (human α7 nAChR): 15.9 ± 2.3
- Ratio (peak current to net charge) (human α7 nAChR): 0.71
- Relative response (human α7 nAChR): 0.143 ± 0.018
- Estimated Rank efficacy (human α7 nAChR): 6
- Estimated Rank potency (human α7 nAChR): 1

SMILES: CC[N+]1(CC)CCN(c2cccc(C(F)(F)F)c2)CC1.[I-] [Compound 2o, 1,1-diethyl-4-(3-(trifluoromethyl)phenyl)piperazin-1-ium iodide]
- functional classification at α7 nAChR (human α7 nAChR): candidate silent agonists
- Potentiated response (human α7 nAChR): 3.1 ± 2.1
- Relative response (human α7 nAChR): 0.000 ± 0.002

SMILES: CC[N+]1(CC)CCN(c2ccc(Br)cc2)CC1.[I-] [Compound 2q, 4-(4-bromophenyl)-1,1-diethylpiperazin-1-ium iodide]
- Potentiated response (human α7 nAChR): 12.3 ± 3.5
- Relative response (human α7 nAChR): 0.270 ± 0.017

SMILES: CC[N+]1(CC)CCN(c2ccc(F)cc2)CC1.[I-] [Compound 2r, 1,1-diethyl-4-(4-fluorophenyl)piperazin-1-ium iodide]
- functional classification at α7 nAChR (human α7 nAChR): candidate silent agonists
- Potentiated response (human α7 nAChR): 22.9 ± 5.8
- Relative response (human α7 nAChR): 0.010 ± 0.002

SMILES: CC[N+]1(CC)CCN(c2cccc(F)c2)CC1.[I-] [Compound 2s, 1,1-diethyl-4-(3-fluorophenyl)piperazin-1-ium iodide]
- functional classification at α7 nAChR (human α7 nAChR): no significant activity as either partial agonists or as silent agonists
- Potentiated response (human α7 nAChR): 0.2 ± 0.1
- PAM-dependent currents relative to ACh (human α7 nAChR): 0.2 fold
- Relative response (human α7 nAChR): 0.061 ± 0.089

SMILES: CC[N+]1(CC)CCN(c2ccc(C(N)=O)cc2)CC1.[I-] [Compound 2t, 4-(4-carbamoylphenyl)-1,1-diethylpiperazin-1-ium iodide]
- functional classification at α7 nAChR (human α7 nAChR): candidate silent agonists
- Potentiated response (human α7 nAChR): 43.9 ± 8.5
- Relative response (human α7 nAChR): 0.065 ± 0.009

SMILES: CC[N+]1(CC)CCN(c2cccc(C(N)=O)c2)CC1.[I-] [Compound 2u, 4-(3-carbamoylphenyl)-1,1-diethylpiperazin-1-ium iodide]
- functional classification at α7 nAChR (human α7 nAChR): candidate silent agonists
- Potentiated response (human α7 nAChR): 50.7 ± 8.5
- Relative response (human α7 nAChR): 0.056 ± 0.022

SMILES: CC[N+]1(CC)CCC(Nc2ccccc2)CC1.[I-] [Compound 6, 1,1-diethyl-4-(phenylamino)piperidinium iodide]
- functional classification at α7 nAChR (human α7 nAChR): no channel activation within experimental error
- Potentiated response (human α7 nAChR): 5.6 ± 2.1
- PAM-dependent response compared to the parent diEPP (human α7 nAChR): enhanced PAM-dependent responses
- Relative response (human α7 nAChR): 0.002 ± 0.004

SMILES: CC[N+]1(CC)CCC(=Cc2ccccc2)CC1.[I-] [Compound 8, 4-benzylidene-1,1-diethylpiperidinium iodide]
- Potentiated response (human α7 nAChR): 9.9 ± 3.1
- PAM-dependent response compared to the parent diEPP (human α7 nAChR): enhanced PAM-dependent responses
- Relative response (human α7 nAChR): 0.071 ± 0.027
